Assay: molar heat capacity at constant pressure
Settings: 101.33 kPa

OC[C@@H](O)[C@@H](O)[C@H](O)[C@H](O)CO [D-mannitol]
molar heat capacity at constant pressure [J/K/mol]
Settings	Small sample (50 mg) DSC	relaxation calorimetry
289.15 K, Crystal	223.23	–
290 K, Crystal	–	224.45
290.15 K, Crystal	223.75	–
291.15 K, Crystal	224.51	–
292.15 K, Crystal	225.52	–
292.3 K, Crystal	–	226.18
293.15 K, Crystal	226.11	–
294.15 K, Crystal	226.79	–
295.15 K, Crystal	227.7	–
296.15 K, Crystal	228.45	–
297.15 K, Crystal	229.12	–
298.15 K, Crystal	229.81	230.54
299.15 K, Crystal	230.64	–
300 K, Crystal	–	231.93
300.15 K, Crystal	231.67	–
301.15 K, Crystal	232.46	–
302.15 K, Crystal	233.28	–
302.32 K, Crystal	–	233.27
303.15 K, Crystal	234.21	–
304.15 K, Crystal	235.1	–
305 K, Crystal	236.23	–
305.15 K, Crystal	236.24	–
306.15 K, Crystal	237.06	–
307.15 K, Crystal	238.05	–
308.15 K, Crystal	239.43	–
309.15 K, Crystal	240.22	–
310 K, Crystal	241.08	–
310.15 K, Crystal	241.1	–
311.15 K, Crystal	242.22	–
312.15 K, Crystal	243.21	–
313.15 K, Crystal	244.03	–
314.15 K, Crystal	244.96	–
315 K, Crystal	245.72	–
315.15 K, Crystal	245.76	–
316.15 K, Crystal	246.45	–
317.15 K, Crystal	247.23	–
318.15 K, Crystal	248.19	–
319.15 K, Crystal	249.13	–
320 K, Crystal	250.2	–
320.15 K, Crystal	250.01	–
321.15 K, Crystal	250.96	–
322.15 K, Crystal	251.62	–
323.15 K, Crystal	252.78	–
324.15 K, Crystal	253.84	–
325 K, Crystal	254.58	–
325.15 K, Crystal	254.69	–
326.15 K, Crystal	255.76	–
327.15 K, Crystal	256.67	–
328.15 K, Crystal	257.61	–
329.15 K, Crystal	258.51	–
330 K, Crystal	258.9	–
330.15 K, Crystal	259.36	–
331.15 K, Crystal	260.09	–
332.15 K, Crystal	260.73	–
333.15 K, Crystal	261.83	–
334.15 K, Crystal	262.7	–
335 K, Crystal	263.16	–
335.15 K, Crystal	263.13	–
336.15 K, Crystal	263.97	–
337.15 K, Crystal	264.87	–
338.15 K, Crystal	265.55	–
339.15 K, Crystal	266.62	–
340 K, Crystal	267.39	–
340.15 K, Crystal	267.34	–
341.15 K, Crystal	268.11	–
342.15 K, Crystal	269.07	–
343.15 K, Crystal	270.04	–
344.15 K, Crystal	271.03	–
345 K, Crystal	271.57	–
345.15 K, Crystal	272.18	–
346.15 K, Crystal	272.93	–
347.15 K, Crystal	273.5	–
348.15 K, Crystal	274.48	–
349.15 K, Crystal	275.36	–
350 K, Crystal	275.71	–
350.15 K, Crystal	275.83	–
351.15 K, Crystal	276.6	–
352.15 K, Crystal	277.59	–
353.15 K, Crystal	278.11	–
354.15 K, Crystal	278.88	–
355 K, Crystal	279.8	–
355.15 K, Crystal	279.75	–
356.15 K, Crystal	280.45	–
357.15 K, Crystal	281.3	–
358.15 K, Crystal	282.01	–
359.15 K, Crystal	282.77	–
360 K, Crystal	283.81	–
360.15 K, Crystal	283.45	–
361.15 K, Crystal	284.29	–
362.15 K, Crystal	285.29	–
363.15 K, Crystal	285.81	–
364.15 K, Crystal	286.87	–
365 K, Crystal	287.75	–
365.15 K, Crystal	287.69	–
366.15 K, Crystal	288.42	–
367.15 K, Crystal	289.35	–
368.15 K, Crystal	290.07	–
369.15 K, Crystal	290.83	–
370 K, Crystal	291.59	–
370.15 K, Crystal	291.54	–
371.15 K, Crystal	292.39	–
372.15 K, Crystal	293.2	–
373.15 K, Crystal	293.84	–
374.15 K, Crystal	294.5	–
375 K, Crystal	295.33	–
375.15 K, Crystal	295.14	–
376.15 K, Crystal	295.96	–
377.15 K, Crystal	296.71	–
378.15 K, Crystal	297.3	–
379.15 K, Crystal	297.95	–
380 K, Crystal	298.96	–
380.15 K, Crystal	298.84	–
381.15 K, Crystal	299.49	–
382.15 K, Crystal	300.09	–
383.15 K, Crystal	300.96	–
384.15 K, Crystal	301.85	–
385 K, Crystal	302.49	–
385.15 K, Crystal	302.62	–
386.15 K, Crystal	303.19	–
387.15 K, Crystal	303.89	–
388.15 K, Crystal	304.75	–
389.15 K, Crystal	305.62	–
390 K, Crystal	305.94	–
390.15 K, Crystal	306.4	–
391.15 K, Crystal	307.13	–
392.15 K, Crystal	307.69	–
393.15 K, Crystal	308.43	–
394.15 K, Crystal	309.27	–
395 K, Crystal	309.33	–
395.15 K, Crystal	309.91	–
396.15 K, Crystal	310.41	–
397.15 K, Crystal	311.05	–
398.15 K, Crystal	311.45	–
399.15 K, Crystal	312.11	–
400 K, Crystal	312.71	–
400.15 K, Crystal	312.88	–
401.15 K, Crystal	313.5	–
402.15 K, Crystal	314.14	–
403.15 K, Crystal	315.02	–
404.15 K, Crystal	315.76	–
405 K, Crystal	316.13	–
405.15 K, Crystal	316.19	–
406.15 K, Crystal	317	–
407.15 K, Crystal	317.55	–
408.15 K, Crystal	318.33	–
409.15 K, Crystal	319.11	–
410 K, Crystal	319.66	–
410.15 K, Crystal	319.62	–
411.15 K, Crystal	320.34	–
412.15 K, Crystal	321.09	–
413.15 K, Crystal	321.71	–
414.15 K, Crystal	322.33	–
415 K, Crystal	323.4	–
415.15 K, Crystal	323.11	–
416.15 K, Crystal	323.76	–
417.15 K, Crystal	324.47	–
418.15 K, Crystal	325.49	–
419.15 K, Crystal	326.12	–
420 K, Crystal	327.48	–
420.15 K, Crystal	327.06	–
421.15 K, Crystal	327.89	–
422.15 K, Crystal	328.71	–
423.15 K, Crystal	329.87	–
424.15 K, Crystal	330.92	–
425 K, Crystal	332.03	–
425.15 K, Crystal	332.36	–
458.15 K, Liquid	511.69	–
459.15 K, Liquid	511.2	–
460 K, Liquid	511.26	–
460.15 K, Liquid	510.98	–
461.15 K, Liquid	510.64	–
462.15 K, Liquid	510.47	–
463.15 K, Liquid	510.51	–
464.15 K, Liquid	510.42	–
465 K, Liquid	511.16	–
465.15 K, Liquid	510.6	–
466.15 K, Liquid	510.6	–
467.15 K, Liquid	510.56	–
468.15 K, Liquid	510.86	–
469.15 K, Liquid	511.11	–
470 K, Liquid	511.05	–
470.15 K, Liquid	511.08	–
471.15 K, Liquid	511.49	–
472.15 K, Liquid	511.38	–
473.15 K, Liquid	511.18	–
474.15 K, Liquid	511.09	–
475 K, Liquid	510.95	–
475.15 K, Liquid	510.93	–
476.15 K, Liquid	510.9	–
477.15 K, Liquid	510.87	–
478.15 K, Liquid	510.67	–
479.15 K, Liquid	510.62	–
480 K, Liquid	510.84	–
480.15 K, Liquid	510.66	–
481.15 K, Liquid	510.52	–
482.15 K, Liquid	510.71	–
483.15 K, Liquid	510.62	–
484.15 K, Liquid	510.5	–
485 K, Liquid	510.74	–
485.15 K, Liquid	510.63	–
486.15 K, Liquid	510.59	–
487.15 K, Liquid	510.6	–
488.15 K, Liquid	510.74	–
490 K, Liquid	510.64	–

Source: the NIST ThermoML archive (doi:10.1016/j.jct.2017.08.004)
